In patent US10125138B2, “Triazolotriazinone derivatives having activity a s herbicides” (Syngenta Participations AG, priority 2015, dated 2018):

Key:
Assay type in all cases: in vivo
Settings in all cases: 1000 g/h, evaluated after 13 days, five point scale
[1] = tested on: Lolium perenne (LOLPE); assay: Post-emergence glasshouse herbicide test, Lolium perenne
Method: (§1) Seeds of a variety of test species are sown in standard soil in pots (Lolium perenne (LOLPE), Solanum nigrum (SOLNI), Amaranthus retoflexus (AMARE), Setaria faberi (SETFA), Echinochloa crus-galli (ECHCG), Ipomoea hederacea (IPOHE)). After cultivation for one day (pre-emergence) or after 8 days cultivation (post-emergence) under controlled conditions in a glasshouse (at 24/16° C., day/night; 14 hours light; 65% humidity), the plants are sprayed with an aqueous spray solution derived from the formulation of the technical active ingredient in acetone/water (50:50) solution containing 0.5% Tween 20 (polyoxyethelyene sorbitan monolaurate, CAS RN 9005-64-5). […] The test plants are then grown in a glasshouse under controlled conditions in a glasshouse (at 24/16° C., day/night; 14 hours light; 65% humidity) and watered twice daily. After 13 days for pre and post-emergence, the test is evaluated for the percentage damage caused to the plant. The biological activities are shown in the following table on a five point scale (5=80-100%; 4=60-79%; 3=40-59%; 2=20-39%; 1=0-19%).

[2] = tested on: Solanum nigrum (SOLNI); assay: Post-emergence glasshouse herbicide test, Solanum nigrum
Method: (§2) Seeds of a variety of test species are sown in standard soil in pots (Lolium perenne (LOLPE), Solanum nigrum (SOLNI), Amaranthus retoflexus (AMARE), Setaria faberi (SETFA), Echinochloa crus-galli (ECHCG), Ipomoea hederacea (IPOHE)). After cultivation for one day (pre-emergence) or after 8 days cultivation (post-emergence) under controlled conditions in a glasshouse (at 24/16° C., day/night; 14 hours light; 65% humidity), the plants are sprayed with an aqueous spray solution derived from the formulation of the technical active ingredient in acetone/water (50:50) solution containing 0.5% Tween 20 (polyoxyethelyene sorbitan monolaurate, CAS RN 9005-64-5). Compounds are applied at 1000 g/h. The test plants are then grown in a glasshouse under controlled conditions in a glasshouse (at 24/16° C., day/night; 14 hours light; 65% humidity) and watered twice daily. After 13 days for pre and post-emergence, the test is evaluated for the percentage damage caused to the plant. The biological activities are shown in the following table on a five point scale (5=80-100%; 4=60-79%; 3=40-59%; 2=20-39%; 1=0-19%).

[3] = tested on: Amaranthus retoflexus (AMARE); assay: Post-emergence glasshouse herbicide test, Amaranthus retoflexus
Method: as §1

[4] = tested on: Setaria faberi (SETFA); assay: Post-emergence glasshouse herbicide test, Setaria faberi
Method: as §1

[5] = tested on: Echinochloa crus-galli (ECHCG); assay: Post-emergence glasshouse herbicide test, Echinochloa crus-galli
Method: as §1

[6] = tested on: Ipomoea hederacea (IPOHE); assay: Post-emergence glasshouse herbicide test, Ipomoea hederacea
Method: as §1

[7] = tested on: Lolium perenne (LOLPE); assay: Pre-emergence glasshouse herbicide test, Lolium perenne
Method: as §1

[8] = tested on: Solanum nigrum (SOLNI); assay: Pre-emergence glasshouse herbicide test, Solanum nigrum
Method: as §2

[9] = tested on: Amaranthus retoflexus (AMARE); assay: Pre-emergence glasshouse herbicide test, Amaranthus retoflexus
Method: as §1

[10] = tested on: Setaria faberi (SETFA); assay: Pre-emergence glasshouse herbicide test, Setaria faberi
Method: as §1

[11] = tested on: Echinochloa crus-galli (ECHCG); assay: Pre-emergence glasshouse herbicide test, Echinochloa crus-galli
Method: as §1

[12] = tested on: Ipomoea hederacea (IPOHE); assay: Pre-emergence glasshouse herbicide test, Ipomoea hederacea
Method: as §1

| Structure (SMILES) | percentage damage caused to the plant, POST Application LOLPE [1] | percentage damage caused to the plant, POST Application SOLNI [2] | percentage damage caused to the plant, POST Application AMARE [3] | percentage damage caused to the plant, POST Application SETFA [4] | percentage damage caused to the plant, POST Application ECHCG [5] | percentage damage caused to the plant, POST Application IPOHE [6] | percentage damage caused to the plant, PRE Application LOLPE [7] | percentage damage caused to the plant, PRE Application SOLNI [8] | percentage damage caused to the plant, PRE Application AMARE [9] | percentage damage caused to the plant, PRE Application SETFA [10] | percentage damage caused to the plant, PRE Application ECHCG [11] | percentage damage caused to the plant, PRE Application IPOHE [12] |
| --- | --- | --- | --- | --- | --- | --- | --- | --- | --- | --- | --- | --- |
| CCn1nnnc1NC(=O)c1nn2cnn(-c3ccccc3)c2nc1=O [Compound 1.013] | 5 (5=80-100%) | 5 (5=80-100%) | 5 (5=80-100%) | 5 (5=80-100%) | 5 (5=80-100%) | 5 (5=80-100%) | 5 (5=80-100%) | 5 (5=80-100%) | 5 (5=80-100%) | 5 (5=80-100%) | 5 (5=80-100%) | 5 (5=80-100%) |
| CCCn1nnnc1NC(=O)c1nn2cnn(-c3ccccc3)c2nc1=O [Compound 1.014] | 5 (5=80-100%) | 5 (5=80-100%) | 5 (5=80-100%) | 5 (5=80-100%) | 5 (5=80-100%) | 5 (5=80-100%) | 5 (5=80-100%) | 5 (5=80-100%) | 5 (5=80-100%) | 5 (5=80-100%) | 5 (5=80-100%) | 5 (5=80-100%) |
| Cn1nnnc1NC(=O)c1nn2cnn(-c3cccc(Cl)c3)c2nc1=O [Compound 1.018] | 4 (4=60-79%) | 5 (5=80-100%) | 5 (5=80-100%) | 5 (5=80-100%) | 5 (5=80-100%) | 5 (5=80-100%) | 3 (3=40-59%) | 5 (5=80-100%) | 4 (4=60-79%) | 5 (5=80-100%) | 5 (5=80-100%) | 5 (5=80-100%) |
| Cn1nnnc1NC(=O)c1nn2cnn(-c3ccc(C(F)(F)F)cc3)c2nc1=O [Compound 1.022] | 3 (3=40-59%) | 5 (5=80-100%) | 5 (5=80-100%) | 5 (5=80-100%) | 5 (5=80-100%) | 4 (4=60-79%) | 4 (4=60-79%) | 5 (5=80-100%) | 5 (5=80-100%) | 5 (5=80-100%) | 5 (5=80-100%) | 4 (4=60-79%) |
| Cc1cccc(-n2ncn3nc(C(=O)Nc4nnnn4C)c(=O)nc23)c1 [Compound 1.026] | 4 (4=60-79%) | 5 (5=80-100%) | 5 (5=80-100%) | 5 (5=80-100%) | 5 (5=80-100%) | 5 (5=80-100%) | 5 (5=80-100%) | 5 (5=80-100%) | 5 (5=80-100%) | 5 (5=80-100%) | 5 (5=80-100%) | 4 (4=60-79%) |
| O=C(Nc1nnnn1-c1ccccc1)c1nn2cnn(-c3ccccc3)c2nc1=O [Compound 1.027] | 2 (2=20-39%) | 5 (5=80-100%) | 4 (4=60-79%) | 2 (2=20-39%) | 1 (1=0-19%) | 3 (3=40-59%) | 1 (1=0-19%) | 5 (5=80-100%) | 5 (5=80-100%) | 2 (2=20-39%) | 1 (1=0-19%) | 4 (4=60-79%) |
| CCCn1nnnc1NC(=O)c1nn2cnn(-c3ccccc3C)c2nc1=O [Compound 1.028] | 5 (5=80-100%) | 5 (5=80-100%) | 5 (5=80-100%) | 5 (5=80-100%) | 5 (5=80-100%) | 5 (5=80-100%) | 5 (5=80-100%) | 5 (5=80-100%) | 5 (5=80-100%) | 5 (5=80-100%) | 5 (5=80-100%) | 5 (5=80-100%) |
| Cc1ccccc1-n1ncn2nc(C(=O)Nc3nnnn3C)c(=O)nc12 [Compound 1.030] | 4 (4=60-79%) | 5 (5=80-100%) | 5 (5=80-100%) | 5 (5=80-100%) | 5 (5=80-100%) | 5 (5=80-100%) | 4 (4=60-79%) | 5 (5=80-100%) | 5 (5=80-100%) | 5 (5=80-100%) | 5 (5=80-100%) | 5 (5=80-100%) |
| CCCn1nnnc1NC(=O)c1nn2cnn(CCC)c2nc1=O [Compound 1.031] | 5 (5=80-100%) | 5 (5=80-100%) | 5 (5=80-100%) | 5 (5=80-100%) | 5 (5=80-100%) | 5 (5=80-100%) | 5 (5=80-100%) | 5 (5=80-100%) | 5 (5=80-100%) | 4 (4=60-79%) | 5 (5=80-100%) | 5 (5=80-100%) |
| CCn1nnnc1NC(=O)c1nn2cnn(-c3cccc(Cl)c3)c2nc1=O [Compound 1.033] | 4 (4=60-79%) | 5 (5=80-100%) | 5 (5=80-100%) | 5 (5=80-100%) | 5 (5=80-100%) | 5 (5=80-100%) | 5 (5=80-100%) | 5 (5=80-100%) | 5 (5=80-100%) | 4 (4=60-79%) | 5 (5=80-100%) | 2 (2=20-39%) |
